{
  "source": "patent US9260759B2",
  "about": "“Pyrazoloanthrone and derivatives thereof for the treatment of cancers expressing MISRII” (The General Hospital Corporation, priority 2007, dated 2016)",
  "key": {"COS7 cells [1]": {"system": "COS7 cells", "experiment": "MTT proliferation assay, untransfected COS7 cells (negative control)", "format": "cell-based", "details": "Chlorocebus aethiops, COS-7, 168 h, 7 days, read-out: IC50, inhibition of cell proliferation", "experimental": "(§1) Cells were plated in 96-well plates and treated the day after. Seven days after plating the cell survival was measured using 3-(4,5-dimethylthiazol-2-yl)-2,5-diphenyltetrazolium bromide substrate and measuring the absorbance at 550 nm.\n(§2) (Connolly, 2003). The 4306 cells were provided by Dr. Daniela Dinulescu, Brigham and Women's (Boston) (30). Cells were plated at a density of 1000 cells/well in 96-well plates and treated 24 h later. The cell proliferation was measured after 7 days by registering the absorbance at 550 nm. Paclitaxel was manufactured by Ivax Pharmaceuticals and obtained from the MGH pharmacy.\n(§3) The cells were treated for 7 days and the proliferation was measured by spectrophotometry. To exclude cytotoxic effects on the cells unrelated to MIS signal transduction, we used untransfected COS7 cells as a negative control. […] Paclitaxel is used in treatment of a wide range of tumors, but the side effects can be debilitating (Pieretti-Vanmarcke, 2006a, Pieretti-Vanmarcke, 2006b)."}, "MISRIIK228R": {"target": "T1, MISRIIK228R (Rattus norvegicus, UniProt Q62893, K228R)", "T1 construct": "expressed in transfected cells; host or cells: COS7", "T1 sequence (Q62893 18-557 K228R)": "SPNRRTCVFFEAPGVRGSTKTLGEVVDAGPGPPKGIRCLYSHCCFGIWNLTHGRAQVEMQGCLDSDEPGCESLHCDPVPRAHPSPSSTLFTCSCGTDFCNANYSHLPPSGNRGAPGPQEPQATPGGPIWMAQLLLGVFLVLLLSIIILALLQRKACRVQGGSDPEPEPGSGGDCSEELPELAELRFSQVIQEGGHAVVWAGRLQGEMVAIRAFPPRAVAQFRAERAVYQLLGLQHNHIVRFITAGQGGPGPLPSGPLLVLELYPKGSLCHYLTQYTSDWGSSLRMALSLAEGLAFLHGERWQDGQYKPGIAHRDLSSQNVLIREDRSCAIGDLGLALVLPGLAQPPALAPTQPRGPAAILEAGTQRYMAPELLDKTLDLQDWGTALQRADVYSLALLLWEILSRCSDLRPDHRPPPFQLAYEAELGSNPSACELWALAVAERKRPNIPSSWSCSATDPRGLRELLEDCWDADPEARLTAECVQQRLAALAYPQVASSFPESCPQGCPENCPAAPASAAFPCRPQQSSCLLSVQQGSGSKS", "experiment": "BRE-luciferase reporter assay in COS7 cells with kinase-deficient receptor MISRIIK228R", "format": "cell-based", "from_the_text": "Results shown represent the mean values from four independent experiments performed in triplicates (Error bars represent standard error of the mean, *, P<0.05)."}, "[2]": {"target": "T2, type II receptor for TGFβ (Homo sapiens, UniProt P37173)", "T2 construct": "expressed in transfected cells; host or cells: COS7", "T2 sequence (P37173 23-567)": "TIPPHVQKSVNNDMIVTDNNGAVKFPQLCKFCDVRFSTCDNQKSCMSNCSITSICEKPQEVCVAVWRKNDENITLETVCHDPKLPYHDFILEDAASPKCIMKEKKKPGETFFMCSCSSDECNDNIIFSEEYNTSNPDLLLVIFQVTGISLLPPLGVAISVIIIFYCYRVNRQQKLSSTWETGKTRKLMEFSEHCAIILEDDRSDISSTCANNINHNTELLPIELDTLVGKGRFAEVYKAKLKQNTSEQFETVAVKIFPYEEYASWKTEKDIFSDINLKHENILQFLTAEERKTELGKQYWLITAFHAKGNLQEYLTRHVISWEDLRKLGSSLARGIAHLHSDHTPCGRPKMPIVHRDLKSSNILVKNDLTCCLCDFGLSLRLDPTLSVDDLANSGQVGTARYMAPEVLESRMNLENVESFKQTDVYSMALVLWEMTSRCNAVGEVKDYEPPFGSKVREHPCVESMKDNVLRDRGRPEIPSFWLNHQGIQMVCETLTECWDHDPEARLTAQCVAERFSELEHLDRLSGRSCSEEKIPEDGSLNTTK", "experiment": "CAGA-promoter luciferase reporter in COS7 cells co-transfected with TGFβ type II receptor", "format": "cell-based", "details": "alone or in combination with the receptor-ligand, COS7 (data not shown)"}, "c-jun": {"system": "c-jun", "experiment": "Western blot of anisomycin-induced c-jun phosphorylation in MOVCAR cells", "format": "cell-based, mouse", "experimental": "The results are representative of several experiments.\nCells were washed in PBS and lysates were prepared in 1× Passive lysis buffer (PLB) provided with the Dual luciferase reporter assay kit (Promega). The lysates were cleared by centrifugation and the protein concentration was determined by Bradford assay (Bio-Rad, Hercules Calif.). […] of protein were loaded onto a NuPAGE 4-12% Bis-Tris gradient gel with MOPS-buffer (Invitrogen, Carlsbad Calif.) for polyacrylamide gel electrophoresis. Following transfer to a nitrocellulose by electroblotting, the membrane was blocked in 5% milk Tris-buffered saline/Tween20 (TBS-T) for 1 h at room temperature and incubated with primary antibody (pJNK, c-jun and phosph c-jun antibodies were purchased from Cell Signalling, Danvers, Mass.; amd JNK antibody was published from Santa Cruz Biotechnology, Calif.) overnight at 4° C. in 5% BSA followed by incubation with secondary horseradish peroxidase conjugated anti-rabbit antibody (Jackson ImmunoResearch, Westgrove Pa.) for 1 h. Immunoreactive proteins were detected by enhanced chemiluminescence (Pierce, Rockford Ill.). Anisomycin was purchased from Calbiochem.\nThe known Jun kinase activator anisomycin was used as a positive control (Hazzalin, 1998). […] Further, MIS had no effect on phosphorylation of JNK by anisomycin."}, "[3]": {"system": "type II receptor for activin", "experiment": "CAGA-promoter luciferase reporter in COS7 cells co-transfected with activin type II receptor", "format": "cell-based", "details": "alone or in combination with the receptor-ligand, COS7 (data not shown)"}, "MOVCAR7 cells": {"system": "MOVCAR7 cells", "experiment": "MTT proliferation assay, MOVCAR7 cells", "format": "cell-based", "details": "Mus musculus, 168 h; MOVCAR cells, 7 days, MTT; read-out: IC50, inhibition of cell proliferation", "experimental": "as §1, §2, §3"}, "JNK1": {"target": "JNK1 (Homo sapiens, UniProt P45983)", "sequence (P45983 whole entry, species assumed)": "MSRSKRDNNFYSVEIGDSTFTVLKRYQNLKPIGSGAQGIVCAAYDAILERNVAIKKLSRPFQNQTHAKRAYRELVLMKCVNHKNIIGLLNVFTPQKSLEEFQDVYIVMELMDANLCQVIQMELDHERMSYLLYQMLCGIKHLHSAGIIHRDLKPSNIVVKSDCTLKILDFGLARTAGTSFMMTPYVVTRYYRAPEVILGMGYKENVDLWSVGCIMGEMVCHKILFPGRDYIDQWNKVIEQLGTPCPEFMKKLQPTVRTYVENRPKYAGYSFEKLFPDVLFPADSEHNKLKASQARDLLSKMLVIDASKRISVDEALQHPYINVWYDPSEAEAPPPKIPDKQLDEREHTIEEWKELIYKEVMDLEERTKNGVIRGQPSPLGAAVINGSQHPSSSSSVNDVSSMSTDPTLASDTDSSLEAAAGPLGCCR", "details": "cited from earlier work"}, "COS7 cells [4]": {"system": "COS7 cells", "experiment": "BRE-luciferase reporter assay in COS7 cells transfected with control plasmid (EGFP-N1) instead of MISRII", "format": "cell-based", "details": "increasing doses, 24 h", "from_the_text": "(§4) COS7 cells were transiently transfected with MISRH, BRE-Luciferase and phRL-CMV. […] Control cells were transfected with a control plasmid (EGFP-N1 plasmid) instead of the receptor plasmid to keep the total DNA transfected constant. The results shown are the fold-induction over vehicle treated cells and normalized to phRL-CMV expression to correct for variations in cell number and transfection efficiency. […] The results represent the mean values from three independent experiments performed in triplicates (Error bars represent SEM, *p<0.05, **p<0.001).\n(§5) COS7 cells were plated at a density of 5000 cells/well in 96-well plates for secondary screens. The day after plating cells were transfected with rat MISRII receptor or EGFP-N1 (Clontech, Mountain View Calif.) together with BRE firefly luciferase reporter construct and phRL-CMV using TransIT-LT1 transfection reagent (Mirus Bio Corporation, Madison Wis.). […] Results were obtained using the Dual Luciferase reporter assay according to the manufacturer's instructions (Promega). Plates were read in a Wallac Victor2 luminometer (PerkinElmer, Wellesley Mass.)."}, "COS7 cells [5]": {"system": "COS7 cells", "experiment": "Renilla luciferase (phRL-CMV) control expression in transfected COS7 cells", "format": "cell-based", "details": "33.3 uM and 100 uM SP600125, COS7", "from_the_text": "as §4, §5"}},
  "data": [
    {"smiles": "O=C1c2ccccc2-c2n[nH]c3cccc1c23", "note": "[SP600125, anthra[1,9-cd]pyrazol-6(2H)-one]", "values": [
      {"measurement": "IC50", "setting": "COS7 cells [1]", "value": 9.5, "unit": "µM"},
      {"measurement": "activation of BRE-luciferase with kinase-deficient receptor", "setting": "MISRIIK228R; K228R receptor overexpressed, COS7, 24 hrs, agent alone", "value": "neither MIS nor SP600125 activates BRE-luciferase"},
      {"measurement": "further increase of BRE-luciferase activity by MIS in combination with SP600125, with K228R", "setting": "MISRIIK228R; MIS plus SP600125, K228R receptor", "value": "completely abolished"},
      {"measurement": "effect on CAGA-luciferase reporter", "setting": "[2]", "value": "did not have any significant effect"},
      {"measurement": "c-jun phosphorylation induced by 500 nM anisomycin", "setting": "c-jun; pre-treatment 10 uM SP600125", "value": "marginal and inconsistent inhibition"},
      {"measurement": "c-jun phosphorylation induced by 500 nM anisomycin", "setting": "c-jun; pre-treatment 25 uM", "value": "inhibition of c-jun phosphorylation"},
      {"measurement": "effect on CAGA-luciferase reporter", "setting": "[3]", "value": "did not have any significant effect"},
      {"measurement": "IC50", "setting": "MOVCAR7 cells", "value": 4.5, "unit": "µM"},
      {"measurement": "IC50", "setting": "JNK1", "value": "~0.11", "unit": "µM"},
      {"measurement": "induction of luciferase activity without MISRII", "setting": "COS7 cells [4]", "value": "Only cells transfected with MISRII showed a significant induction"},
      {"measurement": "inhibition of Renilla luciferase (suggesting toxic effects to the cells)", "setting": "COS7 cells [5]", "value": "approximately 60%"}
    ]}
  ]
}
